{"source": "paper PMC9990178", "about": "(Cell Chemical Biology, 2023)", "key": {"[1]": {"tested_on": "Smad3 phosphorylation, α-SMA, COL1A1", "type": "cell-based, mouse", "details": "Alpha, Beta, Gamma, Delta, Omicron N protein; 20 μM, 36 h"}, "[2]": {"tested_on": "pulmonary fibrosis induced by N protein of the Omicron variant", "type": "in vivo", "details": "mice, AAV encoding Omicron N protein"}}}
{"smiles": "O=c1c(O)c(N2CCN(Cc3ccc(Br)cc3F)CC2)oc2ccccc12", "note": "[RMY-205, 2-(4-(4-bromo-2-fluorobenzyl)piperazin-1-yl)-3-hydroxy-4H-chromen-4-one]", "values": [{"measurement": "Smad3 phosphorylation induced by N protein variants", "setting": "[1]", "result": "abolished"}, {"measurement": "α-SMA and COL1A1 expression induced by N protein variants", "setting": "[1]", "result": "suppression"}, {"measurement": "pro-fibrotic effects of N protein of the Omicron variant", "setting": "[2]", "result": "effectively suppressed"}]}
